The values that follow come from the Deep4Chem optical property database.

A short description of the data set: photoluminescence quantum yield (fraction); solvent given as SMILES.

Several values for one entry are separate records, joined by “and”; a condition that tells them apart may be missing. Identical values can stand only once.

Consider `N#Cc1c(-n2nnc3ccc(Cl)cc32)n([C@H]2C[C@H](O)[C@@H](CO)O2)c2ncnc(N)c12`, for which the photoluminescence quantum yield (in CO) is 0.008.

`Cc1ccc(N2C(c3ccccc3N)=NC(c3ccccc3)C2c2ccccc2)cc1` (stereo not given): under “in Cc1ccccc1”, the photoluminescence quantum yield is 0.009.

Where the note is “in C1CCOC1”, `N#Cc1ccc(/C=C/c2ccc(C=C(c3ccccc3)c3ccccc3)cc2)cc1` returned a photoluminescence quantum yield of 0.166.

`c1cc2c3c(cccc3c1)-c1cc3c(ccc4ccccc43)cc1-2` yielded a photoluminescence quantum yield (in CCCCCCC) of 0.65.

As to `CCCCCCN1C(=O)c2cccc3c(-c4ccc(-c5ccc6c7c(cccc57)C(=O)N(CCCCCC)C6=O)s4)ccc(c23)C1=O`, the photoluminescence quantum yield (in ClC(Cl)Cl) turned out to be 0.15.

In the case of `CN1c2ccc(C(=O)c3ccccc3)cc2Sc2cc(C(=O)c3ccccc3)ccc21`, the photoluminescence quantum yield by setting is: (in C1CCCCC1) 0.43; (in C1CCOC1) 0.28; (in CN(C)C=O) 0.18; (in Cc1ccccc1) 0.4; (in ClC(Cl)Cl) 0.21; (in ClCCl) 0.23.

Under “in Cc1ccccc1”, `CC1(C)c2cc(/C=C/c3nc(/C=C/c4ccc5c(c4)C(C)(C)c4cc(N(c6ccccc6)c6ccccc6)ccc4-5)nc(/C=C/c4ccc5c(c4)C(C)(C)c4cc(N(c6ccccc6)c6ccccc6)ccc4-5)n3)ccc2-c2ccc(N(c3ccccc3)c3ccccc3)cc21` came in with a photoluminescence quantum yield of 0.36.

Consider `CCOC(=O)C1=CN(c2ccccc2)C=CC1c1ccccc1` (stereo not given), for which the photoluminescence quantum yield turned out to be 0.12 (in C1CCOC1) and 0.05 (in CO).

The compound `c1cc2cc(c1)c1ccc3ccc4ccc(cc4c3c1)c1ccc3ccc4ccc(cc4c3c1)c1cccc2c1` showed a photoluminescence quantum yield (in Cc1ccccc1) of 0.92.

Turning to `COc1ccc(C2=C3C(C)=CC(C=Cc4ccc(C(=O)OC5C[C@H]6CCC5(C)C6(C)C)cc4)=[N+]3[B-](F)(F)n3c(C)cc(C)c32)cc1` (stereo not given in full), the photoluminescence quantum yield (in Cc1ccccc1) was found to be 0.41.

On to `CC1(C)c2ccccc2N(c2ccc(-c3nnc(-c4ccc(N5c6ccccc6C(C)(C)c6ccccc65)cc4)o3)cc2)c2ccccc21`, for which, under “in O=P(c1ccccc1)(c1ccccc1)c1ccccc1Oc1ccccc1P(=O)(c1ccccc1)c1ccccc1”, the photoluminescence quantum yield stood at 0.62.

On to `Cc1cc2nc3c(=O)n(C)c(=O)nc-3n(C)c2cc1C`, for which, under “in CC#N”, the photoluminescence quantum yield was 0.17 and 0.47.

Take `CCCCCCc1ccc(-n2c3[n+](c4c5ccccc5c5ccccc5c42)[B-](C)(C)c2cc(-n4c5ccccc5c5ccccc54)ccc2-3)cc1`: the photoluminescence quantum yield turned out to be 0.82 (in C1CCOC1), 0.71 (in CC#N), 0.76 (in Cc1ccccc1) and 0.83 (in ClCCl).

`COc1ccc(C2=[N+]3C(=Nc4c(C)cc(-c5ccc(OC)cc5)n4[B-]3(F)F)C(C)=C2)cc1`: the photoluminescence quantum yield (in CS(C)=O) amounted to 0.44.

For the setting “in ClCCl”, `CCCCn1c2ccccc2c2ccc(C#Cc3ccc4ccc5cccc6ccc3c4c56)cc21` gave a photoluminescence quantum yield of 0.62.

With `C[Si](C)(C)C#Cc1ccc(C#Cc2cnc(C#Cc3ccccc3)nc2)cc1`, the photoluminescence quantum yield (in C1CCCCC1) is 0.0085.

Consider `COc1ccc(CCNC(=O)c2sc(-c3ccc(-c4cc(-c5ccc(C(C)(C)C)cc5)c(C(=O)NCCc5ccc(OC)c(OC)c5)s4)s3)cc2-c2ccc(C(C)(C)C)cc2)cc1OC`, for which the photoluminescence quantum yield (in ClCCl) is 0.27.

As to `CCN(CC)c1ccc2c(c1)oc(=O)c1cc3cnn(-c4ccccc4)c3nc12`, the photoluminescence quantum yield (in C1CCCCC1) was 0.717; the photoluminescence quantum yield (in CCOC(C)=O) stood at 0.233; the photoluminescence quantum yield (in CN(C)C=O) was 0.023; the photoluminescence quantum yield (in CO) amounted to 0.002; the photoluminescence quantum yield (in ClCCl) turned out to be 0.325.

In turn, `C[Si]1(C)O[Si](C)(C)c2cc3c(-c4ccccc4F)c4cc(Cl)ccc4nc3cc21` gave a photoluminescence quantum yield (in ClCCl) of 0.56.

Where the note is “in ClCCl”, `CCCCCCOc1cc(/C=C/c2cc(OCCCCCC)c(/C=C/c3cc(OCCCCCC)c(C=O)cc3OCCCCCC)cc2OCCCCCC)c(OCCCCCC)cc1C=O` displayed a photoluminescence quantum yield of 0.52.

The compound `COc1cc2c(cc1-c1ccc([N+](=O)[O-])cc1)Cc1c3c(c4c(c1-2)-c1cc(OC)c(-c2ccc([N+](=O)[O-])cc2)cc1C4)C(=O)N(CCC(C)C)C3=O` yielded a photoluminescence quantum yield (in C1CCOC1) of 0.11.

The compound `CCOC(=O)c1cc(C(=O)NCc2ccccc2)c2ccc(N(C)C)cc2n1` showed a photoluminescence quantum yield (in CCO) of 0.06.

In turn, `COc1cc(OC)c2cc(C#N)c(=N)oc2c1` returned a photoluminescence quantum yield (in ClCCl) of 0.047.

`CC(C)(C)c1cc(C#Cc2ccc3c(C#Cc4cc(C(C)(C)C)cc(C(C)(C)C)c4)cc4c5cc(C#Cc6cc(C(C)(C)C)cc(C(C)(C)C)c6)ccc5c(C#Cc5cc(C(C)(C)C)cc(C(C)(C)C)c5)cc4c3c2)cc(C(C)(C)C)c1` returned a photoluminescence quantum yield (in ClCCl) of 0.626.

With `COc1cc2c(cc1-c1ccc(N(C)C)cc1)Cc1c3c(c4c(c1-2)-c1cc(OC)c(-c2ccc(N(C)C)cc2)cc1C4)C(=O)N(CCC(C)C)C3=O`, where the note is “in C1CCOC1”, the photoluminescence quantum yield worked out at 0.02.

With `c1ccc([B-]2(c3ccccc3)Oc3ccc4ccccc4c3-c3c4ccccc4cc[n+]32)cc1`, the photoluminescence quantum yield (in Cc1ccccc1) was found to be 0.32.

Where the note is “in CCO”, `O=Cc1ccc(-c2ccc(C3=CCC(c4ccccc4)CC3)s2)s1` (stereo not given) had a photoluminescence quantum yield of 0.29.

Under “in ClC(Cl)Cl”, `N#Cc1nc(N(Cc2ccccc2I)Cc2ccccc2I)c(C#N)nc1N(Cc1ccccc1I)Cc1ccccc1I` showed a photoluminescence quantum yield of 0.61.

Regarding `Cc1cc(O)c(C(=O)/C=C/c2ccc(N(C)C)cc2)c(=O)o1`, the photoluminescence quantum yield (in CC#N) was found to be 0.018 and the photoluminescence quantum yield (in ClCCl) was found to be 0.538.

On to `C(=C\c1ccncn1)/c1ccc(N2CCCCC2)cc1`, for which the photoluminescence quantum yield (in ClCCl) was determined as 0.13.

`Cc1ccc(O)c(-c2nc(C)c3n2CCCC3)c1` yielded a photoluminescence quantum yield (in ClCCl) of 0.43.

Compound `COc1ccc(/C=C/c2nc(/C=C/c3ccc(N(c4ccccc4)c4ccccc4)cc3)cc(/C=C/c3ccc(N(c4ccccc4)c4ccccc4)cc3)n2)cc1` came in with a photoluminescence quantum yield (in ClCCl) of 0.91.

In turn, `CC(C)(C)c1ccc2c(c1)c1ncncc1c1c3ccccc3sc21` registered a photoluminescence quantum yield (in ClCCl) of 0.1.

`CC(C)(C)c1ccc(-c2cnc3cccc(-c4ccccc4)n23)cc1`: the photoluminescence quantum yield (in ClCCl) was 0.31.

`O=[N+]([O-])c1ccc(-c2nc(/C=C/c3ccccc3)c(/C=C/c3ccccc3)[nH]2)cc1`: where the note is “in ClCCl”, the photoluminescence quantum yield was 0.

As to `CCNc1cc2c(cc1C)C(c1ccccc1C(=O)O)=C1CCCC(/C=C/C3=[N+](C)c4ccccc4C3(C)C)=C1O2`, the photoluminescence quantum yield (in CC#N) was 0.32, the photoluminescence quantum yield (in CCO) was determined as 0.56, the photoluminescence quantum yield (in CO) came to 0.55 and the photoluminescence quantum yield (in ClC(Cl)Cl) was found to be 0.54.

For the compound `CCC1=C(C)C2=Cc3cc(I)c(I)n3[B-](F)(F)[N+]2=C1C`, the photoluminescence quantum yield worked out at 0.26 (in C1CCCCC1); 0.16 (in CC(C)=O); 0.2 (in CCO); 0.19 (in CCOC(C)=O); 0.17 (in CO); 0.12 (in OCC(F)(F)F).

As for `O=C1/C(=C2\Sc3ccc(S(=O)(=O)O)cc3C2=O)Sc2ccc(S(=O)(=O)O)cc21`, the photoluminescence quantum yield runs as follows: (in CN(C)C=O) 0.25; (in CO) 0.008; (in CS(C)=O) 0.008; (in O) 0.005.

`CCOc1ccc2c(-c3nc(-c4cccc(Br)c4)no3)cc(=O)oc2c1` had a photoluminescence quantum yield (in CCO) of 0.52 and a photoluminescence quantum yield (in ClC(Cl)Cl) of 0.2.

On to `COc1ccc(/C=C2\OC(=O)c3ccccc32)cc1`, for which the photoluminescence quantum yield is, setting by setting: (in CC(C)=O) 0.01; (in CC(C)CO) 0.07; (in CC(C)O) 0.1; (in CCCO) 0.13; (in CCO) 0.14; (in CCOC(C)=O) 0.008. In addition, the photoluminescence quantum yield runs as follows: (in CCOCC) 0.001; (in CO) 0.14.

Where the note is “in ClC(Cl)Cl”, `Cc1ccc(C2=C3C=CC4=[N+]3[P-](=O)(=O)n3c2ccc3-c2ccc([nH]2)/C(c2ccc(C)cc2)=c2/cc/c(o2)=C(\c2ccc(C)cc2)c2ccc4[nH]2)cc1` returned a photoluminescence quantum yield of 0.18.

For `CN1c2ccccc2CCc2ccccc21`, the photoluminescence quantum yield by setting is: (in CC#N) 0.031; (in CO) 0.027.

Take `CCn1c2ccccc2c2cc(-c3cc(-c4ccc5c(c4)c4ccccc4n5CC)nc(-c4ccc(OC)cc4)n3)ccc21`: the photoluminescence quantum yield (in C1CCOC1) is 0.45; the photoluminescence quantum yield (in CCOC(C)=O) was determined as 0.56; the photoluminescence quantum yield (in CN(C)C=O) came out at 0.68; the photoluminescence quantum yield (in Cc1ccccc1) worked out at 0.54; the photoluminescence quantum yield (in ClCCl) stood at 0.42.

On to `c1ccc(-c2nc(-c3ccccc3)nc(-c3cc(-n4c5ccccc5c5ncccc54)c(-n4c5ccccc5c5ncccc54)c(-n4c5ccccc5c5ncccc54)c3)n2)cc1`, for which the photoluminescence quantum yield (in O=P(c1ccccc1)(c1ccccc1)c1ccc2oc3ccc(P(=O)(c4ccccc4)c4ccccc4)cc3c2c1) turned out to be 0.54.

`F[B-]1(F)n2cccc2C(c2ccccc2)=C2C=CC=[N+]21` gave a photoluminescence quantum yield (in Cc1ccccc1) of 0.053 and a photoluminescence quantum yield (in ClCCl) of 0.74.

For the compound `CCCC1=Cc2nc1ccc1[nH]c(cc1CCC)c1nc(c(OC(=O)CCCC(=O)OC(C)(C)C)cc3[nH]c2cc3CCC)C(CCC)=C1`, where the note is “in Cc1ccccc1”, the photoluminescence quantum yield came to 0.21.

Turning to `CN(C)c1ccc(/C=C/C=C/c2ccc([N+](=O)[O-])c(O)c2)cc1`, the photoluminescence quantum yield is, setting by setting: (in C1CCCCC1) 0.13; (in C1COCCO1) 0.03; (in CCCCCCC) 0.1; (in Cc1ccccc1) 0.11.

As for `CCN(CC)c1ccc2cc(/C=C(\C#N)c3nc4ccccc4o3)c(=O)oc2c1`, the photoluminescence quantum yield was found to be 0.0097 (in C1COCCO1); 0.0071 (in CC#N); 0.0158 (in CCO); 0.0068 (in CCOC(C)=O); 0.0307 (in CN(C)C=O); 0.0157 (in CO). Besides, the photoluminescence quantum yield worked out at 0.0263 (in CS(C)=O), 0.0061 (in Cc1ccccc1) and 0.0066 (in ClCCl).

With `CC(C)Oc1ccc(C#Cc2cc3ccccc3oc2=O)cc1`, for the setting “in CC#N”, the photoluminescence quantum yield amounted to 0.43.

In turn, `O=c1c2ccccc2c2c(C#C[Si](c3ccccc3)(c3ccccc3)c3ccccc3)c3c(=O)c4ccccc4c3c(C#C[Si](c3ccccc3)(c3ccccc3)c3ccccc3)c12` displayed a photoluminescence quantum yield (in ClC(Cl)Cl) of 0.09.
